{"source": "patent US20100041699A1", "about": "“MICROCRYSTALLINE (5-FLUORO-2-METHYL-3-QUINOLIN-2-YLMETHYL-INDOL-1-YL) ACETIC ACID” (OXAGEN LIMITED, priority 2005, published 2010)", "type_in_all_cases": "physicochemical", "key": {"[1]": {"assay": "Crystal sizes measured by laser diffraction", "settings": "for Particle Diameter, 10% particles under given diameter / Particle Diameter, 50% particles under given diameter / Particle Diameter, 90% particles under given diameter: laser diffraction; for Particle Diameter, 10% particles under given diameter: 10% of particles under given diameter; for Particle Diameter, 50% particles under given diameter: 50% of particles under given diameter; for Particle Diameter, 90% particles under given diameter: 90% of particles under given diameter", "experimental": "The sizes of the crystals of one batch of Product A ((5-fluoro-2-methyl-3-quinolin-2-ylmethylindo-1-yl)-acetic acid recrystallised from DMSO/water as described above in Example 1, step 4) and three batches of Product B ((5-fluoro-2-methyl-3-quinolin-2-ylmethylindo-1-yl)-acetic acid recrystallised from DMSO/water and then treated with potassium carbonate and citric acid as described above in Example 1, step 4a) were measured by laser diffraction and compared."}, "pKa of the acid": {"assay": "pKa of the acid", "excerpt": "The term “weak acid” as used in step (ii) of the method is a term known in the art, and means an acid that partially dissociates in an aqueous solution."}, "Solubility in solvents": {"assay": "Solubility in solvents", "settings": "in most solvents"}}}
{"smiles": "Cc1c(Cc2ccc3ccccc3n2)c2cc(F)ccc2n1CC(=O)O", "note": "[Product A, (5-fluoro-2-methyl-3-quinolin-2-ylmethylindo-1-yl)-acetic acid]", "values": [{"measurement": "Particle Diameter, 10% particles under given diameter", "setting": "[1]; listed as A", "value": 11.93, "unit": "μm"}, {"measurement": "Particle Diameter, 10% particles under given diameter", "setting": "[1]; listed as product A", "value": "less than 10 μm"}, {"measurement": "Particle Diameter, 50% particles under given diameter", "setting": "[1]", "value": 30.13, "unit": "μm"}, {"measurement": "Particle Diameter, 90% particles under given diameter", "setting": "[1]; listed as A", "value": 52.13, "unit": "μm"}]}
{"smiles": "Cc1c(Cc2ccc3ccccc3n2)c2cc(F)ccc2n1CC(=O)O", "note": "[Product B, (5-fluoro-2-methyl-3-quinolin-2-ylmethylindo-1-yl)-acetic acid]", "values": [{"measurement": "Particle Diameter, 10% particles under given diameter", "setting": "[1]; listed as B (Batch 1)", "value": 0.10, "unit": "μm"}, {"measurement": "Particle Diameter, 10% particles under given diameter", "setting": "[1]; listed as B (Batch 2)", "value": 0.20, "unit": "μm"}, {"measurement": "Particle Diameter, 10% particles under given diameter", "setting": "[1]; listed as B (Batch 3)", "value": 0.11, "unit": "μm"}, {"measurement": "Particle Diameter, 50% particles under given diameter", "setting": "[1]; listed as B (Batch 1)", "value": 0.27, "unit": "μm"}, {"measurement": "Particle Diameter, 50% particles under given diameter", "setting": "[1]; listed as B (Batch 2)", "value": 0.37, "unit": "μm"}, {"measurement": "Particle Diameter, 50% particles under given diameter", "setting": "[1]; listed as B (Batch 3)", "value": 0.31, "unit": "μm"}, {"measurement": "Particle Diameter, 90% particles under given diameter", "setting": "[1]; listed as B (Batch 1)", "value": 0.92, "unit": "μm"}, {"measurement": "Particle Diameter, 90% particles under given diameter", "setting": "[1]; listed as B (Batch 2)", "value": 0.80, "unit": "μm"}, {"measurement": "Particle Diameter, 90% particles under given diameter", "setting": "[1]; listed as B (Batch 3)", "value": 1.53, "unit": "μm"}, {"measurement": "Particle Diameter, 90% particles under given diameter", "setting": "[1]; listed as product B", "value": "less than 2 μm"}]}
{"smiles": "Cc1c(Cc2ccc3ccccc3n2)c2cc(F)ccc2n1CC(=O)O", "note": "[(5-fluoro-2-methyl-3-quinolin-2-ylmethyl-indol-1-yl)-acetic acid]", "values": [{"measurement": "diameter of 90% of the crystals", "setting": "[1]; recrystallised from DMSO/water", "value": "50-70 μm"}, {"measurement": "pKa", "setting": "pKa of the acid", "value": 2.8}, {"measurement": "solubility", "setting": "Solubility in solvents", "value": "sparingly soluble in most solvents"}]}
